In US9656963B2 (BRISTOL-MYERS SQUIBB COMPANY, priority 2012, dated 2017):

Molecular target: T1, hGPR40 (Homo sapiens, UniProt O14842)
T1 construct: 3x FLAG; expressed in transfected cells
Assay: FDSS-Based Intracellular Calcium Assay
Format: cell-based
Conditions: cells expressing GPR40, intracellular Ca2+ response
Procedure: FDSS-Based Intracellular Calcium Assay
Cell lines expressing GPR40 are generated using the pDEST 3× flag gene expression system and are cultured in culture medium comprising the following components: F12 (Gibco #11765), 10% lipid deprived fetal bovine serum, 250 μg/ml zeocin and 500 μg/ml G418. To conduct the fluorescent imaging plate reader (FLIPR)-based calcium flux assay to measure intracellular Ca^2+ response, cells expressing GPR40 are plated on 384 well plates (BD Biocoat #356697) at a density of 20,000 cells/20 μL medium per well in phenol red and serum-free DMEM (Gibco #21063-029) and incubated overnight. […] Compounds are dissolved in DMSO and diluted to desired concentrations with assay buffer and added to the cells as 3x solution (20 μL per well). Run fluorescence/luminescence reader FDSS (Hamamatsu) to read intracellular Ca^2+ response.

T1 sequence (O14842 whole entry): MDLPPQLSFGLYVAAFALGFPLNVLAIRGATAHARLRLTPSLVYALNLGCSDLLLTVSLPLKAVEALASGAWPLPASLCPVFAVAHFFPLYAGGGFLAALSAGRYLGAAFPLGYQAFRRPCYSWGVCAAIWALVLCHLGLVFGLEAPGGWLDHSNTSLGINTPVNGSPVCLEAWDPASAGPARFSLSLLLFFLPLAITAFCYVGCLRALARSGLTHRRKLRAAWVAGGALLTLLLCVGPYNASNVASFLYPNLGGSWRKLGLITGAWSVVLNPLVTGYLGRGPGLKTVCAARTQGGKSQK

| SMILES | EC50 |
| --- | --- |
| COc1ccc(F)c(-c2ccc(Cc3ccc(N4N=C(C(F)(F)F)CC4(C)CC(=O)O)cc3)c(C)c2)c1 (single isomer, unassigned) [Example 51, Isomer 2, 2-(1-(4-((2′-fluoro-5′-methoxy-3-methylbiphenyl-4-yl)methyl)phenyl)-5-methyl-3-(trifluoromethyl)-4,5-dihydro-1H-pyrazol-5-yl)acetic acid] | 1490 nM |
| Cc1cc(Cc2ccc(N3N=C(C(F)(F)F)CC3CC(=O)O)cc2)ccc1-c1cc(OC(F)(F)F)ccc1Cl (racemic) [Example 25, 2-(1-(4-((2′-chloro-2-methyl-5′-(trifluoromethoxy)biphenyl-4-yl)methyl)phenyl)-3-(trifluoromethyl)-4,5-dihydro-1H-pyrazol-5-yl)acetic acid] | 280 nM |
| COc1ccc(F)c(-c2ccc(Cc3ccc(N4N=C(C(F)(F)F)C(CC5CC5)C4CC(=O)O)cc3)c(C)c2)c1 (single isomer, unassigned) [Example 46, Isomer 1, 2-(4-(cyclopropylmethyl)-1-(4-((2′-fluoro-5′-methoxy-3-methylbiphenyl-4-yl)methyl)phenyl)-3-(trifluoromethyl)-4,5-dihydro-1H-pyrazol-5-yl)acetic acid] | 50 nM |
| COc1ccc(F)c(-c2ccc(Oc3ccc(N4N=C(C#N)CC4CC(=O)O)cc3)c(C)c2)c1 (racemic) [Example 32, 2-(3-cyano-1-(4-(2′-fluoro-5′-methoxy-3-methylbiphenyl-4-yloxy)phenyl)-4,5-dihydro-1H-pyrazol-5-yl)acetic acid] | 190 nM |
| COc1ccc(F)c(-c2ccc(Cc3ccc(N4N=C(C(F)(F)F)C(CC5CC5)C4CC(=O)O)cc3)c(C)c2)c1 (single isomer, unassigned) [Example 46, Isomer 2, 2-(4-(cyclopropylmethyl)-1-(4-((2′-fluoro-5′-methoxy-3-methylbiphenyl-4-yl)methyl)phenyl)-3-(trifluoromethyl)-4,5-dihydro-1H-pyrazol-5-yl)acetic acid] | 1910 nM |
| COc1ccc(OC)c(-c2ccc(Cc3ccc(N4N=C(C#N)CC4CC(=O)O)cc3)c(C)c2)c1 (single isomer, unassigned) [Example 49, Isomer 1, 2-(3-cyano-1-(4-((2′,5′-dimethoxy-3-methylbiphenyl-4-yl)methyl)phenyl)-4,5-dihydro-1H-pyrazol-5-yl)acetic acid] | 225 nM |
| COc1ccc(F)c(-c2cc(C)c(Oc3ccc(N4N=C(C(F)(F)F)CC4CC(=O)O)cc3)cc2F)c1 (racemic) [Example 12, 2-(1-(4-(2,2′-difluoro-5′-methoxy-5-methylbiphenyl-4-yloxy)phenyl)-3-(trifluoromethyl)-4,5-dihydro-1H-pyrazol-5-yl)acetic acid] | 510 nM |
| C[C@@H]1C(C(F)(F)F)=NN(c2ccc(CCCc3ccccc3)cc2)[C@H]1CC(=O)O [Example 71, 2-((4S,5S)-4-methyl-1-(4-(3-phenylpropyl)phenyl)-3-(trifluoromethyl)-4,5-dihydro-1H-pyrazol-5-yl)acetic acid] | 5760 nM |
| Cc1cc(-c2cc(O)ccc2F)ccc1Cc1ccc(N2N=C(C(F)(F)F)[C@@H](C)[C@@H]2CC(=O)O)cc1 [Example 56, 2-((4S,5S)-1-(4-((2′-fluoro-5′-hydroxy-3-methyl-[1,1′-biphenyl]-4-yl)methyl)phenyl)-4-methyl-3-(trifluoromethyl)-4,5-dihydro-1H-pyrazol-5-yl)acetic acid] | 150 nM |
| CCOc1ccc(F)c(-c2ccc(Cc3ccc(N4N=C(C(F)(F)F)[C@@H](C)[C@@H]4CC(=O)O)cc3)c(C)c2)c1 [Example 70, 2-((4S,5S)-1-(4-((5′-ethoxy-2′-fluoro-3-methyl-[1,1′-biphenyl]-4-yl)methyl)phenyl)-4-methyl-3-(trifluoromethyl)-4,5-dihydro-1H-pyrazol-5-yl)acetic acid] | 120 nM |
| COc1ccc(F)c(-c2ccc(Cc3ccc(N4N=C(C#N)C(C)C4CC(=O)O)cc3)c(C)c2)c1 (single isomer, unassigned) [Example 52, Isomer 2, 2-(3-cyano-1-(4-((2′-fluoro-5′-methoxy-3-methylbiphenyl-4-yl)methyl)phenyl)-4-methyl-4,5-dihydro-1H-pyrazol-5-yl)acetic acid] | 300 nM |
| Cc1cc(Oc2ccc(N3N=C(C#N)CC3CC(=O)O)cc2)c(C)cc1Br (racemic) [Example 31, 2-(1-(4-(4-bromo-2,5-dimethylphenoxy)phenyl)-3-cyano-4,5-dihydro-1H-pyrazol-5-yl)acetic acid] | 360 nM |
| COc1ccc(F)c(-c2ccc(Cc3ccc(N4N=C(C(F)(F)F)C(CC#N)C4CC(=O)O)cc3)c(C)c2)c1 (single isomer, unassigned) [Example 54, Isomer 2, 2-(4-(cyanomethyl)-1-(4-((2′-fluoro-5′-methoxy-3-methyl-[1,1′-biphenyl]-4-yl)methyl)phenyl)-3-(trifluoromethyl)-4,5-dihydro-1H-pyrazol-5-yl)acetic acid, trans-diastereomer] | 1100 nM |
| COc1ccc(F)c(-c2ccc(Cc3ccc(N4N=C(C(F)(F)F)C(c5ccccc5)C4CC(=O)O)cc3)c(C)c2)c1 (single isomer, unassigned) [Example 47, Isomer 1, 2-(1-(4-((2′-fluoro-5′-methoxy-3-methylbiphenyl-4-yl)methyl)phenyl)-4-phenyl-3-(trifluoromethyl)-4,5-dihydro-1H-pyrazol-5-yl)acetic acid] | 890 nM |
| COCC1C(C(F)(F)F)=NN(c2ccc(Cc3ccc(-c4cc(OC)ccc4F)cc3C)cc2)C1CC(=O)O (single isomer, unassigned) [Example 48, Isomer 1, 2-(1-(4-((2′-fluoro-5′-methoxy-3-methylbiphenyl-4-yl)methyl)phenyl)-4-(methoxymethyl)-3-(trifluoromethyl)-4,5-dihydro-1H-pyrazol-5-yl)acetic acid] | 170 nM |
| COc1ccc(F)c(-c2ccc(Cc3ccc(N4N=C(c5ccc(F)cc5)[C@@H](C)[C@@H]4CC(=O)O)cc3)c(C)c2)c1 (single isomer, unassigned) [Example 67, isomer 1] | 9 nM |
| COc1ccc(F)c(-c2ccc(Cc3ccc(N4N=C(C(F)(F)F)C(CC#N)C4CC(=O)O)cc3)c(C)c2)c1 (single isomer, unassigned) [Example 54, isomer 1, 2-(4-(cyanomethyl)-1-(4-((2′-fluoro-5′-methoxy-3-methyl-[1,1′-biphenyl]-4-yl)methyl)phenyl)-3-(trifluoromethyl)-4,5-dihydro-1H-pyrazol-5-yl)acetic acid, trans-diastereomer] | 380 nM |
| COc1ccc(F)c(-c2ccc(Oc3ccc(N4N=C(C(F)(F)F)CC4CC(=O)O)cc3)c(C)c2)c1 (single isomer, unassigned) [Example 14, Isomer 1, 2-(1-(4-(2′-fluoro-5′-methoxy-3-methylbiphenyl-4-yloxy)phenyl)-3-(trifluoromethyl)-4,5-dihydro-1H-pyrazol-5-yl)acetic acid] | 165 nM |
| COc1cccc(-c2ccc(Oc3ccc(N4N=C(C(F)(F)F)CC4CC(=O)O)cc3)c(C)c2)c1 (single isomer, unassigned) [Example 9, Isomer 1, 2-(1-(4-(3′-methoxy-3-methylbiphenyl-4-yloxy)phenyl)-3-(trifluoromethyl)-4,5-dihydro-1H-pyrazol-5-yl)acetic acid] | 190 nM |
